The values below come from US8034602B2 (priority 2006, dated 2011).

Each structure is given as a SMILES string.

The experiment relates to mutant strain CJR0500. Briefly: Flask fermentation with tryptophan added to fermentation medium. Conditions: 50 mg/L tryptophan in fermentation medium, 30° C., 64 hrs, shaking. The format is cell-based, Corynebacterium glutamicum.

Turning to `N[C@@H](Cc1c[nH]c2ccccc12)C(=O)O` [Tryptophan, L-tryptophan], the “Effect of tryptophan addition on growth” value is reported as “stimulate the growth”.
